Data set [1] in a line: In vitro intrinsic clearance in human liver microsomes. In kind it is in vitro ADME. To be noted: for CLint scaled at 2 μM: human, read-out: HLM CLint. The procedure:
Determination of In Vitro Intrinsic Clearance in Human Liver Microsomes:
Compounds were prepared as solutions in methanol. The final concentration of methanol in the incubation media was 0.2% (v/v). […] The total incubation volume was 1 mL. The reaction mixture was pre-warmed at 37° C. for 2 min before adding NADPH (1.2 mM). Aliquots (75 μL) of the reaction mixture at 0, 5, 10, 15, and 30 min were added to acetonitrile (200 μL) containing internal standard (terfenadine)(0.05 μg/mL), and the samples were centrifuged at 2500 g for 5 min prior to liquid chromatography/tandem mass spectrometry (LC/MS-MS) analysis of each compound using multiple reaction monitoring (MRM). For control experiments, NADPH was omitted from these incubations.
The microsomal half-life (t1/2) was obtained from a log-linear plot of the substrate depletion vs incubation time and was scaled to hepatic intrinsic clearance (CLint) using the following equation, in which the term t1/2 refers to the in vitro half-life: […]

Data set [2] in a line: Shake flask Log D (SFLogD) determination, pH 7.4. It counts as physicochemical. As to conditions: for logD: shake flask, octan-1-ol / 0.1 M sodium phosphate buffer. The procedure: Shake Flask Log D (SF Log D) Determination:
The Log D determinations were carried out in a similar manner as described by Hay et al. Drug Metabolism and Disposition 37(9), 1864-1870, 2009, the procedure of which is generally described below.
Log D(7.4) Determination. The distribution coefficient of the test compounds between octan-1-ol and 0.1 M sodium phosphate buffer, pH 7.4, was determined by the shake flask methodology in an automated manner. 0.3 mg of compound was dissolved in 300 μL of octan-1-ol and aliquoted in duplicate into a 96-well block. Three hundred microliters of presaturated buffer (2 liters of buffer presaturated with 10 mL of octan-1-ol) was added to the wells, and the solution was vigorously mixed. After centrifugation, the two phases were separated. Ten microliters of a 1:200 dilution of the octan-1-ol layer and 10 μL of a 1:20 dilution of the buffer layer were directly injected onto the high-performance liquid chromatography (HPLC) (for example using an appropriate C18 column, isocratic elution with 90% methanol, 10% water, 2 mM ammonium acetate, and 0.03% formic acid at flow rate of 2 mL/min). The peak areas were corrected for the dilution factors, and the following calculation was applied to determine the mean log D value at pH 7.4 (log D(7.4)): […]

The test system of the next data set is major CYP450 isozymes. Briefly: CYP450 DDI cocktail assay (reversible inhibition, all isozymes together). In kind it is in vitro ADME, human. To be noted: for risk of reversible inhibition of CYP450 isozymes, in words: 3 μM; for >25% reversible inhibition of CYP activity at 3 μM (CYP): CYP450 DDI cocktail assay, isozymes inhibited in brackets. The procedure: Multi-Point Cocktail DDI IC50 Assay Conditions:
Standard marker activity substrates were incubated with pooled human liver microsomes (HL-MIX-102) in the presence of NADPH (1.2 mM) in 100 mM KH2PO4, pH 7.4 containing 3.3 mM MgCl2 at 37° C. The incubation volume was 0.1 mL, utilizing a 384-well plate format. The microsomal protein concentrations (0.1 mg/mL) and P450 concentration (0.035 μM) was used for each probe substrate at the following concentrations [tacrine (1A2) 2 uM; diclofenac (2C9) 5 μM; dextromethorphan (2D6) 5 μM; midazolam (3A4) 2 μM; taxol (2C8) 5 μM; S-mephenytoin (2C19) 40 μM]. Substrate concentrations were near Km values that had been previously determined and incubation times were selected based on determinations of reaction velocity linearity. Each test compound/prototypical inhibitors was tested at a concentration range of 0-30 μM in triplicate, in final vehicle solvent concentrations of 0.9% acetonitrile and 0.1% DMSO. Incubations were initiated with the addition of NADPH. At the end of the incubation period, termination solvent containing internal standard was added, the terminated incubation mixture was centrifuged to precipitate microsomal protein. Samples were directly injected on an HPLC-MS/MS system. A Biomek FX workstation was used for liquid handling and sample incubation.
Reversible CYP450 inhibitory potential for each compound was assessed using the CYP450 DDI cocktail assay, measuring the inhibition of the metabolism of a known probe substrate of each of the major CYP isozymes at 3 μM concentration.

Data set [3] deals with THLE-2 (transformed human liver epithelial) cells. Briefly: Transformed human liver epithelial (THLE) assay, ATP depletion 72 h. In kind it is cell-based. As to conditions: for cytotoxicity in THLE cell line, in words: cellular ATP; for IC50: Homo sapiens, read-out: THLE. The procedure: Transformed Human Liver […] (THLE) Assay:
ATP depletion was measured after 72 hours of exposure to a particular concentration of the chemical. […] Cells were cultured in T175 Human fibronectin/collagen/bovine serum albumin coated flasks. […] Plates were incubated for 24 hours at 37° C., 5% CO2.
All compounds were initially solubilized in 100% DMSO. This dosing scheme contained 32 compounds per plate. Stock plates were prepared using 1 μl aliquots of 100× compound/well (30 mM-0.058 mM). The plates were prepared for dosing by adding 99 μl of cell culture media and mixing. Test compounds were added to cell culture plates by aspirating overnight culture media and replacing with 25 μL/well of media containing test compound using the layout outlined below. The final concentration of DMSO in each well was 1.0%. […] The ATP concentration was determined by reading luminescence using a Wallac Envision plate reader (Perkin Elmer, Waltham, Mass., USA). Percent of viable cells relative to no-drug treated controls was determined for each well.

Data set [4] addresses T1, human kappa opioid receptor (hKOR) (Homo sapiens, UniProt P41145).
T1 construct: expressed in transfected cells; host or cells: CHO cells
Briefly: Kappa radioligand binding assay ([3H]diprenorphine, CHO cell membranes). As to conditions: for Selectivity hMOR/hKOR: selectivity ratio calculated by dividing the hMOR Ki by the hKOR Ki. A digest of the protocol: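 Membranes from CHO cells expressing human kappa receptor incubated 1 h at room temperature with compound and 0.6 nM [3H]diprenorphine in 50 mM Tris pH 7.4, 1 mM EDTA, 5 mM MgCl2. Nonspecific binding defined with 10 μM naltrexone; filtration, scintillation counting; IC50 from 4-parameter fit converted to Ki via Cheng-Prusoff.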

[5] abbreviates: pH 7.4, human liver microsomal intrinsic clearance.
Where [6] appears, read: THLE-2, ATP cell viability, 72 hours.
Setting [7] is: Table 19, geometric mean of 2-6 determinations unless otherwise indicated (Example 3: >=7), read-out: hKOR binding assay Ki.
Setting [8] is: Table 20, radioligand binding, read-out: hKOR binding assay Ki.
Where [9] appears, read: radioligand binding, [3H]diprenorphine, read-out: hKOR Ki.

The text below walks through data of patent publication US10316021B2, “Heteroarylphenoxy benzamide kappa opioid ligands” (Pfizer Inc., priority 2016, dated 2019).

Each structure is given as a SMILES string. Where two headings read alike, the source gives them in different places.

T1 sequence (P41145 whole entry): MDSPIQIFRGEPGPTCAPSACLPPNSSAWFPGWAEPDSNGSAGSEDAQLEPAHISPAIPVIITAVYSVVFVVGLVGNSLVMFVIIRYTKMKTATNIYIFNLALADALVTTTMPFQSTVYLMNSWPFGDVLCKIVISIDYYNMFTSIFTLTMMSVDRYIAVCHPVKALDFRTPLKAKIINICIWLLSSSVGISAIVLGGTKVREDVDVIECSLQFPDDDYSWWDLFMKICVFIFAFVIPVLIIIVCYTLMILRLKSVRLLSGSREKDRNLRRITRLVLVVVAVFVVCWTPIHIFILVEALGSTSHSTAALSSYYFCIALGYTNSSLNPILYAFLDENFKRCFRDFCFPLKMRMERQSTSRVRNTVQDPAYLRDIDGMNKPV

On to `COc1nn(C)cc1[C@@H]1CCCN1Cc1ccc(Oc2ccc(C(N)=O)cc2)cc1` (single isomer, unassigned) [Example 12], for which the “hepatic / metabolic clearance in human liver microsomes, in words” value (“hepatic / metabolic clearance” below) in data set [1] is “surprisingly low intrinsic metabolic turnover rates”. In addition, in data set [1] (setting [5]), the CLint scaled at 2 μM came to 8 mL/min/kg. Moreover, in data set [1] (pH 7.4, human liver microsomes), the CLint scaled at 2 μM was below 20 mL/min/kg. Moreover, in data set [2], the “Log D, in words” value is “much more in line with drugs that progress to Phase II” and the logD stood at 1.4. In addition, in the data set on major CYP450 isozymes, the “risk of reversible inhibition of CYP450 isozymes, in words” value (“risk of reversible inhibition … in words” below) is listed as “no significant risk of reversible inhibition” and the “>25% reversible inhibition of CYP activity at 3 μM (CYP)” value (“>25% reversible inhibition” for short) was “no”. Also, in data set [3] (72 hours), the “cytotoxicity in THLE cell line, in words” value is recorded as “little to no cytotoxicity”. Further, in data set [3] (setting [6]), the IC50 was above 300000 nM. In data set [4], the “selectivity for KOR over MOR, in words” value is “more selective than the phenyl examples, Comparators A and B”; the “Selectivity hMOR/hKOR” value was 31. For the same compound, the inhibition constant Ki in data set [4] (setting [7]) worked out at 1.47 nM. Besides, the inhibition constant Ki in data set [4] (setting [8]) came out at 1.5 nM. Besides, in data set [4] (setting [9]), the Ki is 1 to 3 nM.

Consider `COc1nn(C)cc1C1CCCN1Cc1ccc(Oc2ccc(C(N)=O)cc2F)cc1` (single isomer, unassigned; (-)) [Example 8, (−)-3-Fluoro-4-(4-{[2-(3-methoxy-1-methyl-1H-pyrazol-4-yl)pyrrolidin-1-yl]methyl}phenoxy)benzamide], for which, in data set [1], the “hepatic / metabolic clearance” value is on record as “surprisingly low intrinsic metabolic turnover rates”. The CLint scaled at 2 μM in data set [1] (setting [5]) is 12 mL/min/kg. Further, in data set [1] (pH 7.4, human liver microsomes), the CLint scaled at 2 μM is below 20 mL/min/kg. For the same compound, in data set [2], the “Log D, in words” value was “much more in line with drugs that progress to Phase II” and the logD stood at 1.9. For the same compound, in the data set on major CYP450 isozymes, the “risk of reversible inhibition … in words” value is listed as “no significant risk of reversible inhibition” and the “>25% reversible inhibition” value is given as “no”. For the same compound, the “cytotoxicity in THLE cell line, in words” value in data set [3] (72 hours) was “little to no cytotoxicity”. Also, in data set [3] (setting [6]), the IC50 was above 300000 nM. Also, in data set [4], the “selectivity for KOR over MOR, in words” value is “more selective than the phenyl examples, Comparators A and B”; the “Selectivity hMOR/hKOR” value is listed as 37. In addition, in data set [4] (setting [7]), the Ki was 2.56 nM. In addition, in data set [4] (setting [8]), the Ki was found to be 2.6 nM. Besides, the inhibition constant Ki in data set [4] (setting [9]) lay in the range of 1 to 3 nM.

`NC(=O)c1ccc(Oc2ccc(CN3CCC(c4ccccc4)C3)cc2)nc1` (stereo not drawn) [Comparator A, reference compound]: in data set [1] (setting [5]), the CLint scaled at 2 μM stood at 20 mL/min/kg. Besides, the logD in data set [2] is 1.8. Moreover, the “>25% reversible inhibition” value in the data set on major CYP450 isozymes is reported as “no”. For the same compound, the IC50 in data set [3] (setting [6]) was above 300000 nM. Besides, the Ki in data set [4] (setting [8]) is 3.1 nM. Besides, the “Selectivity hMOR/hKOR” value in data set [4] was 0.03.

Regarding `NC(=O)c1ccc(Oc2ccc(CN3CCCCC3c3ccccc3)cc2)nc1` (stereo not drawn) [Comparator B], in data set [1], the “hepatic / metabolic clearance” value is recorded as “high hepatic clearance”. The CLint scaled at 2 μM in data set [1] (setting [5]) was 89 mL/min/kg. Moreover, the log distribution coefficient (logD) in data set [2] stood at 2.7. The “>25% reversible inhibition” value in the data set on major CYP450 isozymes is given as “no”. Besides, the IC50 in data set [3] (setting [6]) was 224000 nM.

Consider `NC(=O)c1ccc(Oc2ccc(CN3CCCC3c3cccnc3)cc2)c(Cl)c1` (stereo not drawn) [Comparator C], for which the “hepatic / metabolic clearance” value in data set [1] is listed as “high hepatic clearance”. In addition, the CLint scaled at 2 μM in data set [1] (setting [5]) turned out to be 320 mL/min/kg. The same compound displayed a logD in data set [2] of 3.2. In the data set on major CYP450 isozymes, the “risk of reversible inhibition … in words” value is “a risk for reversible DDI at CYP450 isozymes 2C8, 2C9, 3A4, and/or 2D6” and the “>25% reversible inhibition” value is “yes (2C8, 2C9,”. Further, the IC50 in data set [3] (setting [6]) amounted to 177000 nM. Moreover, the inhibition constant Ki in data set [4] (setting [8]) came out at 1.2 nM. For the same compound, the “Selectivity hMOR/hKOR” value in data set [4] is recorded as 17.

Turning to `NC(=O)c1ccc(Oc2ccc(CN3CCCC3c3ccccc3)cc2)nc1` (stereo not drawn) [Comparator D], the CLint scaled at 2 μM in data set [1] (setting [5]) was found to be 45 mL/min/kg. In data set [2], this compound showed a pH-dependent lipophilicity (logD) of 2.3. In the data set on major CYP450 isozymes, the “risk of reversible inhibition … in words” value is on record as “a risk for reversible DDI at CYP450 isozymes 2C8, 2C9, 3A4, and/or 2D6” and the “>25% reversible inhibition” value is listed as “yes (2D6)”. In data set [3] (THLE-2, 72 h), the IC50 was 179000 nM. In addition, in data set [4] (setting [8]), the Ki came to 5.8 nM. Also, the “Selectivity hMOR/hKOR” value in data set [4] is 28.
